Measurements as given in US20260207565A1, “COMPOUNDS THAT INHIBIT PKMYT1” (Exelixis, Inc., priority 2022, published 2026).

How the values were obtained:
PKMYT1 = molecular target: T1, PKMYT1 (Homo sapiens, UniProt Q99640); experiment: ADP-Glo PKMYT1 ATP-depletion assay; details: 50 nM PKMYT1, 13.3 nM CDK1, 88 μM ATP, 120 minutes at RT, read-out: Biochemical IC50
T1 construct: PKMYT1 (93 kD, full length, N-terminal GST tag from Signal Chem); GST (N); purchased Signal Chem
T1 sequence (Q99640 1-499): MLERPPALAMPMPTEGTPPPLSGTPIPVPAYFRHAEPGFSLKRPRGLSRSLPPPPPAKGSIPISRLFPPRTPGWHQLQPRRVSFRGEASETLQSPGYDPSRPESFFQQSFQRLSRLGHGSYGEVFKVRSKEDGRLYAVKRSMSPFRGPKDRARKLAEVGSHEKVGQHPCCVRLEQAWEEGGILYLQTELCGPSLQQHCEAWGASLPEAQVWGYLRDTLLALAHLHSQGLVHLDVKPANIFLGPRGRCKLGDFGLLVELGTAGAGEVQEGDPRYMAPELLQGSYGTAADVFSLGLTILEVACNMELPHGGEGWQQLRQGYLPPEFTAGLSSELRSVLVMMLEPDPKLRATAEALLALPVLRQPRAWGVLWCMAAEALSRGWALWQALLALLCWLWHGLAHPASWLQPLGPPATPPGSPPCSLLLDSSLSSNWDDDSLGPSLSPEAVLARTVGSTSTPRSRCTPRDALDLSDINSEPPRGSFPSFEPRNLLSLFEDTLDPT
Procedure: (§1) Biochemical IC50 values were determined via ADP-Glo™ assay. Cellular IC50 values were determined via AlphaLISA assay.
ADP-Glo™ PKMYT1 ATP-depletion assay. The activity of PKMYT1 is measured using a luciferase-luciferin based ATP detection reaction to quantify ATP depletion resulting from kinase-catalyzed phosphoryl transfer to CDK1 or autophosphorylation of PKMYT1. The ADP generated as a byproduct of the reaction is converted to ATP and used to drive a luciferase reaction. Test compounds were dissolved in DMSO and dispensed into Corning 3824 384-well plates prior to the experiment such that the final DMSO concentration was <10%. To the compounds was added 3 μL of PKMYT1 (93 kD, full length, N-terminal GST tag from Signal Chem). The reaction was started by the addition of 2 μL of CDK1 (58 kDa, full length, N-terminal GST tag from Signal Chem) and ATP in assay buffer (50 mM Hepes, 40 mM NaCl, 10 mM MgCl2, 1 mM DTT, 0.1 mg/mL BSA, 2.5 mM MnCl2). Final assay concentrations were 50 nM PKMYT1, 13.3 nM CDK1, and 88 μM ATP. Plates were centrifuged for 1 minute at 1000 RPM and incubated at RT for 120 minutes. After the incubation period, ADP-Glo™ reagent was added and the plates were incubated for another 40 minutes before finally adding the kinase detection reagent, 30 minutes after the addition, plates were placed on a PHERAstar® plate reader and read using the Luminescence Protocol, integration time at 0.5 seconds.

[1] = test system: phosphorylation of CDK1 at Thr14 in HCC1806 cells; experiment: Cell lysate AlphaLISA assay measuring inhibition of phosphorylation of CDK1 Thr14; format: cell-based; details: Homo sapiens, HCC1806, 4 h, compounds incubated 4 hours, AlphaLISA SureFire Ultra CDK1 Thr14, read-out: Cellular IC50
Procedure: as §1
Cell lysate AlphaLISA® assay measuring inhibition of phosphorvlation of CDK1 Thr14. Inhibition of phosphorylation of CDK1 at Thr14 was determined using AlphaLISAn SureFire® Ultra™ Kit from Perkin Elmer (ALSU-PCDK1-A10K). HCC1806 cells were seeded at 2K cells per well (50 μl/well) in 384-well plates (Corning 3570) and stored overnight at 37° C. and 5% CO2. The following day, the compounds dissolved in DMSO were introduced to the cells and incubated for 4 hours at 37° C. and 5% CO2. The cells were then washed with PBS using Blue® Washer and 10 μl of lysis buffer containing protease inhibitor was added. The plate was placed on an orbital shaker (at 4° C.) for 30 minutes and stored overnight at −80° C. for complete lysing. The next day, the plates were thawed at room temperature for at least 30 min. Reagents were prepared in a dimmed light setting (<100 lumens). The assay was run by first adding 5 μl of the acceptor mix (reaction buffer 1: reaction buffer 2:activation buffer:acceptor beads 47:47:4:2), covering the plate with foil, shaking for 2 minutes, and incubating at RT for 60 minutes. The donor mix (dilution buffer:donor beads 47:3) was then added at 5 μl per well, placed on the shaker for 2 minutes and incubated at RT for 60 minutes before reading the plates on a PHERAstar® plate reader. The results were normalized to DMSO (0% Inhibition) and 3 μM of reference compound.

| IC50 (PKMYT1) [nM] | IC50 [1] [nM] | Structure (SMILES) |
| --- | --- | --- |
| < 50 | < 50 | Cc1ccc(O)c(C)c1-c1c(N)c(C(N)=O)nc2c1c(C(N)=O)nn2C (atropisomer, axis not shown; (M)) [Compound 74, (M)-5-Amino-4-(3-hydroxy-2,6-dimethylphenyl)-1-methyl-1H-pyrazolo[3,4-b]pyridine-3,6-dicarboxamide] |
| < 50 | < 50 | CCn1cc(C(N)=O)c2c(-c3c(C)ccc(O)c3C)c(N)c(C(N)=O)nc21 (atropisomer, axis not shown; (M)) [Compound 76, (M)-5-Amino-1-ethyl-4-(3-hydroxy-2,6-dimethylphenyl)-1H-pyrrolo[2,3-b]pyridine-3,6-dicarboxamide] |
| < 50 | < 50 | Cc1c(O)cccc1-c1c(N)c(C(N)=O)nc2c1c(C#N)cn2-c1ncccc1F (atropisomer, axis not shown; (M)) [Compound 78, (M)-5-Amino-3-cyano-1-(3-fluoropyridin-2-yl)-4-(3-hydroxy-2-methylphenyl)-1H-pyrrolo[2,3-b]pyridine-6-carboxamide] |
| < 50 | < 50 | Cc1c(O)cccc1-c1c(N)c(C(N)=O)nc2c1c(-c1c[nH]nn1)cn2C (atropisomer, axis not shown; (M)) [Compound 90, (M)-5-amino-4-(3-hydroxy-2-methylphenyl)-1-methyl-3-(1H-1,2,3-triazol-4-yl)-1H-pyrrolo[2,3-b]pyridine-6-carboxamide] |
| < 50 | < 50 | CCn1cc(-c2cn[nH]c2)c2c(-c3cccc(O)c3C)c(N)c(C(N)=O)nc21 (atropisomer, axis not shown; (M)) [Compound 91, (M)-5-amino-1-ethyl-4-(3-hydroxy-2-methylphenyl)-3-(1H-pyrazol-4-yl)-1H-pyrrolo[2,3-b]pyridine-6-carboxamide] |
| < 50 | < 50 | CCn1cc(C#N)c2c(-c3cccc(O)c3C)c(N)c(C(N)=O)nc21 (atropisomer, axis not shown; (M)) [Compound 92, (M)-5-amino-3-cyano-1-ethyl-4-(3-hydroxy-2-methylphenyl)-1H-pyrrolo[2,3-b]pyridine-6-carboxamide] |
| < 50 | < 50 | CCn1cc(C(N)=O)c2c(-c3cccc(O)c3C)c(N)c(C(N)=O)nc21 (atropisomer, axis not shown; (M)) [Compound 96, (M)-5-amino-1-ethyl-4-(3-hydroxy-2-methylphenyl)-1H-pyrrolo[2,3-b]pyridine-3,6-dicarboxamide] |
| < 50 | < 50 | Cc1ccc(O)c(C)c1-c1cc(C(N)=O)nc2c1c(C#N)cn2-c1ncccc1F (atropisomer, axis not shown; (P)) [Compound 68, (P)-3-Cyano-1-(3-fluoropyridin-2-yl)-4-(3-hydroxy-2,6-dimethylphenyl)-1H-pyrrolo[2,3-b]pyridine-6-carboxamide] |
| < 50 | < 50 | Cc1ccc(O)c(C)c1-c1c(N)c(C(N)=O)cc2c1ncn2C(F)(F)F (atropisomer, axis not shown; (P)) [Compound 70, (P)-5-Amino-4-(3-hydroxy-2,6-dimethylphenyl)-1-(trifluoromethyl)-1H-benzo[d]imidazole-6-carboxamide] |
| < 50 | < 50 | CCn1cc(-c2ncon2)c2c(-c3c(C)ccc(O)c3C)cc(C(N)=O)nc21 (atropisomer, axis not shown; (P)) [Compound 71, (P)-1-Ethyl-4-(3-hydroxy-2,6-dimethylphenyl)-3-(1,2,4-oxadiazol-3-yl)-1H-pyrrolo[2,3-b]pyridine-6-carboxamide] |
| < 50 | < 50 | Cc1ccc(O)c(C)c1-c1c(N)c(C(N)=O)nc2c1ncn2C(F)F (atropisomer, axis not shown; (P)) [Compound 72, (P)-6-Amino-3-(difluoromethyl)-7-(3-hydroxy-2,6-dimethylphenyl)-3H-imidazo[4,5-b]pyridine-5-carboxamide] |
| < 50 | < 50 | Cc1ccc(O)c(C)c1-c1c(N)c(C(N)=O)nc2c1ncn2C1CC(F)(F)C1 (atropisomer, axis not shown; (P)) [Compound 75, (P)-6-amino-3-(3,3-difluorocyclobutyl)-7-(3-hydroxy-2,6-dimethylphenyl)-3H-imidazo[4,5-b]pyridine-5-carboxamide] |
| < 50 | < 50 | CCn1cnc2c(-c3c(C)ccc(O)c3C)c(N)c(C(N)=O)nc21 (atropisomer, axis not shown; (P)) [Compound 81, (P)-6-amino-3-ethyl-7-(3-hydroxy-2,6-dimethylphenyl)-3H-imidazo[4,5-b]pyridine-5-carboxamide] |
| < 50 | < 50 | Cc1ccc(O)c(C)c1-c1c(N)c(C(N)=O)cc2c1ncn2C(F)F (atropisomer, axis not shown; (P)) [Compound 85, (P)-5-amino-1-(difluoromethyl)-4-(3-hydroxy-2,6-dimethylphenyl)-1H-benzo[d]imidazole-6-carboxamide] |
| < 50 | < 50 | Cc1ccc(O)c(C)c1-c1c(N)c(C(N)=O)nc2c1ncn2CC(F)(F)F (atropisomer, axis not shown; (P)) [Compound 86, (P)-6-amino-7-(3-hydroxy-2,6-dimethylphenyl)-3-(2,2,2-trifluoroethyl)-3H-imidazo[4,5-b]pyridine-5-carboxamide] |
| < 50 | < 50 | Cc1ccc(O)c(C)c1-c1c(N)c(C(N)=O)cc2c1ncn2-c1ncccc1F (atropisomer, axis not shown; (P)) [Compound 87, (P)-5-amino-1-(3-fluoropyridin-2-yl)-4-(3-hydroxy-2,6-dimethylphenyl)-1H-benzo[d]imidazole-6-carboxamide] |
| < 50 | < 50 | Cc1ccc(O)c(C)c1-c1cc(C(N)=O)nc2c1c(C#N)cn2C(C)C (atropisomer, axis not shown; (P)) [Compound 88, (P)-3-cyano-4-(3-hydroxy-2,6-dimethylphenyl)-1-isopropyl-1H-pyrrolo[2,3-b]pyridine-6-carboxamide] |
| ≥ 5000 | – | Cc1ccc(O)c(C)c1-c1cc(C(N)=O)nc2c1c(Cl)cn2C (single isomer, unassigned) [Compound 31] |
| 50 to 500 | – | Cc1ccc(O)c(C)c1-c1cc(C(N)=O)nc2c1c(Cl)cn2C (single isomer, unassigned) [Compound 32] |
| 1000 to 5000 | – | Cc1ccc(O)c(C)c1-c1cc(C(N)=O)nc2c1c(C#N)c(C)n2C (single isomer, unassigned) [Compound 33] |
| < 50 | – | Cc1ccc(O)c(C)c1-c1cc(C(N)=O)nc2c1c(C#N)c(C)n2C (single isomer, unassigned) [Compound 34] |
| 50 to 500 | – | Cc1c(Cl)cncc1-c1c(N)c(C(N)=O)nc2c1c(C#N)cn2C [Compound 10] |
| < 50 | – | Cc1c(Cl)cncc1-c1c(N)c(C(N)=O)nc2c1c(C#N)cn2C [Compound 11] |
